The source of these data is paper PMC11847541, “Liver fatty acid binding protein FABP1 transfers substrates to cytochrome P450 4A11 for catalysis” (The Journal of Biological Chemistry, 2025).

In data set [1] the target is T1, FABP1 (Homo sapiens, UniProt P07148).
T1 construct: GST (N, cleaved yes); made in house; host or cells: Escherichia coli DH5α
T1 sequence (P07148 with tags, fused parts or gaps): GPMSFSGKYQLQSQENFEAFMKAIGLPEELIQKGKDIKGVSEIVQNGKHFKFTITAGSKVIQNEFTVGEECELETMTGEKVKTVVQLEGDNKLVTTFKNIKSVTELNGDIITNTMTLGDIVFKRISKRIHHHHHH
Conditions: human FABP1, fluorescence displacement assay; read-out: Kd; cited from earlier work.

Data set [2] addresses T2, P450 4A11 (Homo sapiens, UniProt Q02928).
T2 sequence (Q02928 5-519): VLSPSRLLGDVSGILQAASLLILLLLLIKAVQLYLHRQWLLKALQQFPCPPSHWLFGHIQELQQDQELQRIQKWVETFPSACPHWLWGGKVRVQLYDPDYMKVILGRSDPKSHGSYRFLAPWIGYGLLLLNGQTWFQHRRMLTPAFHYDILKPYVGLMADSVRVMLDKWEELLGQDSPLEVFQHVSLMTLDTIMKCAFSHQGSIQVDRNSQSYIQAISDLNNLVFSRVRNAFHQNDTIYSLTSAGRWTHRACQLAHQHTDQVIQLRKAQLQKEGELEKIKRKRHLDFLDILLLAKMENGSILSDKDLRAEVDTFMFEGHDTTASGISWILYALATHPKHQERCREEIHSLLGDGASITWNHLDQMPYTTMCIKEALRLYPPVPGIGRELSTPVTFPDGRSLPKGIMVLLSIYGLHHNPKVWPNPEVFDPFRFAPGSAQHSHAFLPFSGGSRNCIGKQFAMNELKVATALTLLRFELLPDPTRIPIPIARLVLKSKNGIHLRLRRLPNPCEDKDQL
Kind of data set: Stopped-flow kinetics of palmitate binding to P450 4A11 (type I shift). Set-up: made in house; host or cells: E. coli. Particulars: P450 4A11 1 μM, palmitate 5 μM; read-out: kon to P450 4A11 (k1). The method, then:
To assess the rates of lipid binding to P450 4A11 (k1), type I spectral shift (from ∼420 nm to ∼390 nm, described previously) was monitored after rapid mixing of P450 and palmitate (Fig. 9A, magenta [substrate free], blue [substrate bound]). When P450 4A11 (1 μM) was mixed with palmitate (5 μM), slow binding kinetics were observed (Fig. 9B). Single exponential fitting of the data yielded a binding rate of 0.21 ± 0.03 s^−1 (kon = k1 = 4.2 ± 0.6 × 10^4 M^−1 s^−1).
Figure 9 Kinetics of fatty acid binding to P450 4A11.A, spectra were collected with 1 μM P450 4A11 (purple line) to which 5 μM palmitate (blue line) and 50 μM ketoconazole (red line) were successively added to induce characteristic P450 “type I” and “type II” spectral shifts, respectively. B, P450 4A11 (1 μM) was rapidly mixed with palmitate (5 μM), and the P450 blue shift (A) was monitored and fit to an exponential equation (blue line) yielding a kon value of 0.21 ± 0.03 s^−1. C, 16-OH palmitate (4 μM) and D, palmitate (10 μM) were preincubated with P450 4A11 (2 μM) and rapidly mixed with ketoconazole (100 μM), and the P450 red shift (part A) was monitored and fit to biexponential equations (red lines). […]
On-rates (kon) to P450 4A11 with lipids were determined by monitoring the hypsochromic (“blue,” “type I”) shift in the heme Soret (A418 [hexacoordinated] → A390 [pentacoordinated]) as substrate binds. […]

Details of data set [3]: method as in PMID 2335507. Conditions: cited from earlier work.
Data set [4] has as its target T3, P450 4A11 (Homo sapiens, UniProt Q02928).
T3 construct: made in house; host or cells: E. coli
T3 sequence (Q02928 5-519): T2 sequence (Q02928 5-519)
T3 sequence (P07148 with tags, fused parts or gaps partner): T1 sequence (P07148 with tags, fused parts or gaps)
The data set is described as follows: Fluorescence titration of Alexa-FABP1 with P450 4A11. Format: binding. Conditions: 10 mM potassium phosphate pH 7.4, quadratic fit. The method, then: The Alexa-FABP1 construct was tested for P450 binding in a fluorescence titration with P450 4A11.
Figure 10 Binding of Alexa-FABP1 to P450 4A11.A, equilibrium binding titration of Alexa-FABP1 (25 nM) with P450 4A11 as the titrant (0–50 nM). Titrations were performed in 10 mM (closed circles) or 100 mM (open circles) potassium phosphate buffer (pH 7.4). A control reaction was performed with P450 101A1 (P450cam) in 100 mM KPhos (open squares). The change in fluorescence upon protein–protein binding was normalized to the corresponding change in a buffer control. […] Each data point corresponds to one independent replicate, ≥3 biological replicates were collected to confirm the effect. B, kinetics of binding of Alexa-FABP1 (0.125 μM) and P450 4A11 (0.125 μM). Six traces were averaged, and the data were fit to a single exponential curve (in red). The extracted binding rate was 2.0 ± 0.2 s^−1. FABP1, fatty acid binding protein.
Alexa-FABP1 (25 nM [estimated by an asborbance at 280 nm prior to conjugation reaction, accounting for dilution, and assuming no protein loss during the reaction]) was prepared in potassium phosphate buffer (10 mM or 100 mM, pH 7.4) in a 1 ml glass cuvette. A buffer baseline was recorded using an OLIS DM-45 spectrofluorometer (1.24 mm slit width) with excitation wavelength of 470 nm and scanning emission spectra from 500 to 600 nm. P450 4A11 (stored in 100 mM potassium phosphate buffer [pH 7.4] containing 20% glycerol) was titrated (0–50 nM) into the Alexa-FABP1 solution. The same experiment was repeated but with the P450 4A11 buffer used as the titrant to normalize the data for any solvent effect. […] As stimulation was observed by the P450 interaction, the value of one was subtracted from the normalized fluorescence values so that the curve would have an (x, y) intercept of (0, 0). Kd values were calculated fitting plots of the normalized fluorescence at emission maximum versus concentration of P450 4A11 using a quadratic equation in GraphPad Prism software.

With `CCCCCCCCCCCCCCCC(=O)O` [Palmitate (C16), palmitate], the dissociation constant (Kd) in data set [1] is 38 ± 1 nM. Also, the kon in data set [2] came to 42000 ± 6e+07 M⁻¹ s⁻¹.
Turning to “FABP1: delipidated recombinant liver fatty acid binding protein with C-terminal hexahistidine tag”, in data set [3], the “rate of FABP1 lipid transfer to phospholipid membranes” value was approximately 0.005 s⁻¹. The equilibrium dissociation constant (Kd) in data set [4] was approximately 3 nM.

In general, Kd refers to the equilibrium constant for the complex coming apart. By kon is commonly meant a measure of how fast the partners come together.
